From ChEMBL document CHEMBL4507289, “Data for DCP probe GSM1” (2021)
Calls of active or inactive are those of the source. No cut-off for these calls is given here.

Key:
[1] = target: STE20-like serine/threonine-protein kinase (Homo sapiens) (UniProt Q9H2G2); conditions: Compound concentration 1000.0 nM
[2] = target: Cyclin-G-associated kinase (Homo sapiens) (UniProt O14976); conditions: Compound concentration 1000.0 nM
[3] = target: Beta-3 adrenergic receptor (Homo sapiens) (UniProt P13945); conditions: Compound concentration 10.0 uM
[4] = target: Serine/threonine-protein kinase MAK (Homo sapiens) (UniProt P20794); conditions: Compound concentration 1000.0 nM
[5] = target: Sodium-dependent noradrenaline transporter (Homo sapiens, UniProt P23975); experiment: GPCRScan assay: inhibition of NET; parameters: radioligand conc. used [nm] 1.3 – 5.0, parental cells stable HEK
[6] = target: Mu-type opioid receptor (Homo sapiens) (UniProt P35372); conditions: Compound concentration 10.0 uM
[7] = target: Muscarinic acetylcholine receptor M1 (Homo sapiens) (UniProt P11229); conditions: Compound concentration 10.0 uM
[8] = target: Alpha-1B adrenergic receptor (Homo sapiens) (UniProt P35368); conditions: Compound concentration 10.0 uM
[9] = target: Serine/threonine-protein kinase 4 (Homo sapiens) (UniProt Q13043); conditions: Compound concentration 1000.0 nM
[10] = target: Receptor-interacting serine/threonine-protein kinase 2 (Homo sapiens) (UniProt O43353); conditions: Compound concentration 1000.0 nM
[11] = tested on: Epidermal growth factor receptor (Homo sapiens), P00533 [UNDEFINED MUTATION]; conditions: Compound concentration 1000.0 nM
[12] = target: T1, Sodium-dependent dopamine transporter (Homo sapiens, UniProt Q01959); experiment: GPCRScan assay: inhibition of DAT; parameters: radioligand conc. used [nm] 3.6 – 16.0, parental cells stable HEK
[13] = target: Rho-associated protein kinase 1 (Homo sapiens) (UniProt Q13464); conditions: Compound concentration 1000.0 nM
[14] = target: MAP/microtubule affinity-regulating kinase 4 (Homo sapiens) (UniProt Q96L34); conditions: Compound concentration 1000.0 nM
[15] = target: T1, Sodium-dependent dopamine transporter; experiment: Dopamine-uptake assay
[16] = target: Sodium-dependent serotonin transporter (Homo sapiens, UniProt P31645); experiment: Serotonin-uptake assay
[17] = target: Cyclin-dependent kinase 2 (Homo sapiens) (UniProt P24941); conditions: Compound concentration 1000.0 nM
[18] = tested on: Phosphatidylinositol 4,5-bisphosphate 3-kinase catalytic subunit alpha isoform (Homo sapiens), P42336 [C420R]; conditions: Compound concentration 1000.0 nM
[19] = tested on: eIF-2-alpha kinase GCN2 (Homo sapiens), Q9P2K8 [S808G]; conditions: Compound concentration 1000.0 nM
[20] = tested on: Phosphatidylinositol 4,5-bisphosphate 3-kinase catalytic subunit alpha isoform (Homo sapiens), P42336 [E545A]; conditions: Compound concentration 1000.0 nM
[21] = target: 5-hydroxytryptamine receptor 2B (Homo sapiens) (UniProt P41595); conditions: Compound concentration 10.0 uM
[22] = target: Alpha-1A adrenergic receptor (Homo sapiens) (UniProt P35348); conditions: Compound concentration 10.0 uM
[23] = target: Mitogen-activated protein kinase kinase kinase 14 (Homo sapiens) (UniProt Q99558); conditions: Compound concentration 1000.0 nM
[24] = target: 5-hydroxytryptamine receptor 1E (Homo sapiens) (UniProt P28566); conditions: Compound concentration 10.0 uM
[25] = target: Muscarinic acetylcholine receptor M2 (Homo sapiens) (UniProt P08172); conditions: Compound concentration 10.0 uM
Histamine H2 receptor = Histamine H2 receptor (Homo sapiens, UniProt P25021); experiment: GPCRScan assay: inhibition of H2; parameters: radioligand conc. used [nm] 0.02 – 0.05, parental cells Stable HEK
[26] = target: Receptor-interacting serine/threonine-protein kinase 1 (Homo sapiens) (UniProt Q13546); conditions: Compound concentration 1000.0 nM
[27] = target: Beta-2 adrenergic receptor (Homo sapiens) (UniProt P07550); conditions: Compound concentration 10.0 uM
[28] = tested on: Mast/stem cell growth factor receptor Kit (Homo sapiens), P10721 [L576P]; conditions: Compound concentration 1000.0 nM
[29] = target: Alpha-1D adrenergic receptor (Homo sapiens) (UniProt P25100); conditions: Compound concentration 10.0 uM
[30] = target: Myosin-IIIa (Homo sapiens) (UniProt Q8NEV4); conditions: Compound concentration 1000.0 nM
D(4) dopamine receptor = D(4) dopamine receptor (Homo sapiens, UniProt P21917); experiment: GPCRScan assay: inhibition of D4; parameters: radioligand conc. used [nm] 0.6 – 1.7, parental cells Stable HEK
[31] = GPCRScan assay: inhibition of GABA/PBR; parameters: species or system Rattus norvegicus; radioligand conc. used [nm] 0.3 – 2.0, parental cells brain tissue
[32] = target: Alpha-1B adrenergic receptor (Homo sapiens, UniProt P35368); experiment: GPCRScan assay: inhibition of Alpha1B; parameters: radioligand conc. used [nm] 0.3 – 1.0, parental cells stable HEK
[33] = target: 5-hydroxytryptamine receptor 1D (Homo sapiens) (UniProt P28221); conditions: Compound concentration 10.0 uM
[34] = target: Alpha-1A adrenergic receptor (Homo sapiens, UniProt P35348); experiment: GPCRScan assay: inhibition of Alpha1A; parameters: radioligand conc. used [nm] 0.2 - 1.0, parental cells stable HEK

T1 sequence (Q01959 whole entry): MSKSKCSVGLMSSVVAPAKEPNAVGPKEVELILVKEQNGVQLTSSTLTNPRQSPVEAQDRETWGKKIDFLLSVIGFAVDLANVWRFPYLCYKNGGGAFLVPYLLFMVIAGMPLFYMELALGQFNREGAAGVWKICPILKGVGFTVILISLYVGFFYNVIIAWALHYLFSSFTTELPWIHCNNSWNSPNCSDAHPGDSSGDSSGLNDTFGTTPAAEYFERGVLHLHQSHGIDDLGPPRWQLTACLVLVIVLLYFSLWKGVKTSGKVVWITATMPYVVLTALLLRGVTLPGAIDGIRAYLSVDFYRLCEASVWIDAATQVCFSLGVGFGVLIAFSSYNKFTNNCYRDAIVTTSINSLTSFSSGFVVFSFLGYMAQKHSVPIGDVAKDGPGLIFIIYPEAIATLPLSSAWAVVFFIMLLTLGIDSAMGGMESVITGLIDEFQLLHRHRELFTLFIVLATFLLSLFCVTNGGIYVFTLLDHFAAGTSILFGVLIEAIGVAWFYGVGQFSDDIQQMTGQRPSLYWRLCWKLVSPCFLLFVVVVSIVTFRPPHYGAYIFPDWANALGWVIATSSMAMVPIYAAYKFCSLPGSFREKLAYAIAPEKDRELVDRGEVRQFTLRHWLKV
Phosphatidylinositol 4,5-bisphosphate 3-kinase catalytic subunit alpha isoform (Homo sapiens), P42336 [E545A], sequence (P42336 whole entry E545A, canonical isoform): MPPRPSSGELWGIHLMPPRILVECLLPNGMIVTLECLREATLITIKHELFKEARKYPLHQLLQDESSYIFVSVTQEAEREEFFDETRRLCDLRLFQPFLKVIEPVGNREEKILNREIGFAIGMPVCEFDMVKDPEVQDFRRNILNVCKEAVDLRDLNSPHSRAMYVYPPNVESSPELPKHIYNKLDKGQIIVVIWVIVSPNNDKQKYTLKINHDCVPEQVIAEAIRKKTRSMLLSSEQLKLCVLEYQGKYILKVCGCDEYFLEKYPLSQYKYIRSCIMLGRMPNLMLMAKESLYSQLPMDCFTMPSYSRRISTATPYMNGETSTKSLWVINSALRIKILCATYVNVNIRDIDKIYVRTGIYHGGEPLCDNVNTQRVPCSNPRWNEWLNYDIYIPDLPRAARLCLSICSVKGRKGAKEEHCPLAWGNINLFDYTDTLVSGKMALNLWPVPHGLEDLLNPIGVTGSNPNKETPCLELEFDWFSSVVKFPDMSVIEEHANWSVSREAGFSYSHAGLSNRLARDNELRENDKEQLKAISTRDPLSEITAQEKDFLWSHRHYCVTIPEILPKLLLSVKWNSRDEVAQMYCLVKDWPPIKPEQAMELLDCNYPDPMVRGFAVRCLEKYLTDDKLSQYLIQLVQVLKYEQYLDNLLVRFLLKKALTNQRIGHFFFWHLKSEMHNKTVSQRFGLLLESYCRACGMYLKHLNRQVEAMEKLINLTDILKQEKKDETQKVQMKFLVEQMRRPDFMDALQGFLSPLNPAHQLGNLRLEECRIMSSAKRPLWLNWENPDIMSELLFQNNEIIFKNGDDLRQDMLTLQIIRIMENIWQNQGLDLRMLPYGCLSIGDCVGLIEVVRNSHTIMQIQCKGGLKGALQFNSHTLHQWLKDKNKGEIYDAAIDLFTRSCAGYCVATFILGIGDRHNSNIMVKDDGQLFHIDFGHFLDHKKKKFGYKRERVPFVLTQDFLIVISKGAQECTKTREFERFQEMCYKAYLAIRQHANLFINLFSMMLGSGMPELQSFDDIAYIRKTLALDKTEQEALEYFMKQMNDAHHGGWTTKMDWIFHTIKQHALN
Mu-type opioid receptor (Homo sapiens), sequence (P35372 whole entry): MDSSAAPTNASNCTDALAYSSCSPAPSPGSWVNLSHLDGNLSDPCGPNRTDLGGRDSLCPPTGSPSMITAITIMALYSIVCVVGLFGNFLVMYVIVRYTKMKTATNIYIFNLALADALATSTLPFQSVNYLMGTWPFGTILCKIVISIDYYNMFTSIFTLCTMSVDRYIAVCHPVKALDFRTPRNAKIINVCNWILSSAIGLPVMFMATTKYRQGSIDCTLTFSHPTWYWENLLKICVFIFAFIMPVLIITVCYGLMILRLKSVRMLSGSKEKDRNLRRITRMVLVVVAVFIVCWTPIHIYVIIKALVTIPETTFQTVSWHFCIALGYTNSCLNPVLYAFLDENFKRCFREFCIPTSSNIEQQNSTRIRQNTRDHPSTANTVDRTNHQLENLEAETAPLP
Serine/threonine-protein kinase 4 (Homo sapiens), sequence (Q13043 whole entry): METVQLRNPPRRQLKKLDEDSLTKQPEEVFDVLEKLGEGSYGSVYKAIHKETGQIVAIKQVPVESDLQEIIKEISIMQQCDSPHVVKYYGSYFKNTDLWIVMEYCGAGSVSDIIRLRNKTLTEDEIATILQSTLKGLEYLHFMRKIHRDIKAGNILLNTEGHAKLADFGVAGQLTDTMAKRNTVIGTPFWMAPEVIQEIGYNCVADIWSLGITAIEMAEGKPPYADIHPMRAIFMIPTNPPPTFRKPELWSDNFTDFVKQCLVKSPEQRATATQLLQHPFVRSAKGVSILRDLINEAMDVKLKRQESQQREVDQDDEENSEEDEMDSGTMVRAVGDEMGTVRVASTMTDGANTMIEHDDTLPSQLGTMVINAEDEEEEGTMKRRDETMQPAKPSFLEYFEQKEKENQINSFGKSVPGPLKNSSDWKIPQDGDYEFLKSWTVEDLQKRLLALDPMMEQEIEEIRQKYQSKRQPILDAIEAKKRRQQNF
Rho-associated protein kinase 1 (Homo sapiens), sequence (Q13464 2-1354 limits assumed): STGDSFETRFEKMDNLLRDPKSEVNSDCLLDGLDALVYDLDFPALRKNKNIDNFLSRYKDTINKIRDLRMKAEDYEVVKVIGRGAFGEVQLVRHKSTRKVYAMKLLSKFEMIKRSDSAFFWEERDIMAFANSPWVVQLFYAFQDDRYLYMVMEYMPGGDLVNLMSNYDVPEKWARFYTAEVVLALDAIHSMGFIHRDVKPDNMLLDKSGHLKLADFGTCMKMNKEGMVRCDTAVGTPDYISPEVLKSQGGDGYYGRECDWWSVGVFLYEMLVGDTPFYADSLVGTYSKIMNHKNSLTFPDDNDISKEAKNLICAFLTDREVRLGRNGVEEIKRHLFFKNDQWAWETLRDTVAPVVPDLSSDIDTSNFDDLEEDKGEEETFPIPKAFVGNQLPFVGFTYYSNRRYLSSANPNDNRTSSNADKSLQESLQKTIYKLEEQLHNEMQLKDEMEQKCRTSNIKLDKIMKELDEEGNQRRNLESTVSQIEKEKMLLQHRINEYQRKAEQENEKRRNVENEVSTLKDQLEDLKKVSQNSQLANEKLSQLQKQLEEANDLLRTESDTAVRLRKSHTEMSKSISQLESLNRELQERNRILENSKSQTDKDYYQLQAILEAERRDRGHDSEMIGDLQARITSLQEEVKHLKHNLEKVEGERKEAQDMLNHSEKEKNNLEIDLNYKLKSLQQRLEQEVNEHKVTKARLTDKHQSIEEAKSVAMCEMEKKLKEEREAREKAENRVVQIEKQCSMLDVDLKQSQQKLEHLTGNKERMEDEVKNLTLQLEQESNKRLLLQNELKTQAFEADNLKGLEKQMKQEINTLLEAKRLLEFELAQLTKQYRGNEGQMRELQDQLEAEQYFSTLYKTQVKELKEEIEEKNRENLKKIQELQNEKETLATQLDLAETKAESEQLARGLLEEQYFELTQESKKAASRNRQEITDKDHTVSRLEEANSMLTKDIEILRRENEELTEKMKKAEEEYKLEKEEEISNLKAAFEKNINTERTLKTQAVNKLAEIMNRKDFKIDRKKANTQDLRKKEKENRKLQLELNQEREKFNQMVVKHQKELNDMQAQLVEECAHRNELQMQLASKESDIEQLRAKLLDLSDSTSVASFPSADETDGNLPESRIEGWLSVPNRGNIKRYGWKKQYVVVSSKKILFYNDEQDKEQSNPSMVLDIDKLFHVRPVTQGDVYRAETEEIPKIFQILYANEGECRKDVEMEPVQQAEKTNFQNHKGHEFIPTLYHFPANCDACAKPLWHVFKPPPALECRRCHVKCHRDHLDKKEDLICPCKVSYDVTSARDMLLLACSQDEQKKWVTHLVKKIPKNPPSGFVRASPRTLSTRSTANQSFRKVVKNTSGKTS
Serine/threonine-protein kinase MAK (Homo sapiens), sequence (P20794 whole entry): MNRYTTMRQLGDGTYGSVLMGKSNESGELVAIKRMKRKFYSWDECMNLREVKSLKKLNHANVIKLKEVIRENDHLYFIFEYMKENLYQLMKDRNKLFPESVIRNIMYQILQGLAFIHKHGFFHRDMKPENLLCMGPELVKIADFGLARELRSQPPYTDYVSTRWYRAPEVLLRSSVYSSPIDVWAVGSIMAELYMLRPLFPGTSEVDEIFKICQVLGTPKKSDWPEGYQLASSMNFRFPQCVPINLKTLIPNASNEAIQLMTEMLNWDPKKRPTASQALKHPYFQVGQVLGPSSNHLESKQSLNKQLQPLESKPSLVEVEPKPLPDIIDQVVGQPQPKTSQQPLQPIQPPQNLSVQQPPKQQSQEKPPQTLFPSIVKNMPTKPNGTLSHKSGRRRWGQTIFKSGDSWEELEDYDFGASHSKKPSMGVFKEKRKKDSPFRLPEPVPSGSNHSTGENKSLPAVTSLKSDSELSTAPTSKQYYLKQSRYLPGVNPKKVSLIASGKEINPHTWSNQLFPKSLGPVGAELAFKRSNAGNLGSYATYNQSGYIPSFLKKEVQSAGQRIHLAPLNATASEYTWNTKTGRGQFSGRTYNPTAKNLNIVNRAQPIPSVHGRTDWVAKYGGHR
5-hydroxytryptamine receptor 2B (Homo sapiens), sequence (P41595 whole entry): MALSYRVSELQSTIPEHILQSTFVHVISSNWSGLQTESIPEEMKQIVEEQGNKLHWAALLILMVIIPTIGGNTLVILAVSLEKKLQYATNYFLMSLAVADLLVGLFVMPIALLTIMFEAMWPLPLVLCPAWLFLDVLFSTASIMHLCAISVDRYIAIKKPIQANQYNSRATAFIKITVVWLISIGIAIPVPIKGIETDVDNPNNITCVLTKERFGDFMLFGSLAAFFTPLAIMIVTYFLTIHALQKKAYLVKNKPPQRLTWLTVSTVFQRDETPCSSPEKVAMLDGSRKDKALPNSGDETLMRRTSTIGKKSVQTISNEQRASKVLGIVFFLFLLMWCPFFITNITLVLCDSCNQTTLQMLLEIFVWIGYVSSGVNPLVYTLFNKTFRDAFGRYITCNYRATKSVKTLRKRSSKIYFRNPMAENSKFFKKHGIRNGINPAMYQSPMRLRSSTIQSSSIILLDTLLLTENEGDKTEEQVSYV

What does the source list for COc1cc(-c2cn([C@H]3CCc4c(F)cccc4N(CC(F)(F)F)C3=O)nn2)ccc1-n1cnc(C)c1?
residual activity [1]: 100%; residual activity [2]: 88%; inhibition [3]: 15.8%; residual activity [4]: 100%; Ki [5]: 808 nM; inhibition [6]: 30.2%; inhibition [7]: 8.88%; inhibition [8]: 19.9%; residual activity [9]: 100%; residual activity [10]: 100%; residual activity [11]: 98%; Ki ([12]; read-out: Ki): 191 nM; Ki ([12]; read-out: pKi (converted)): 200 nM; residual activity [13]: 100%; residual activity [14]: 100%; IC50 [15]: 536 nM (active); IC50 [16]: 13 nM (active); residual activity [17]: 100%; residual activity [18]: 75%; residual activity [19]: 100%; residual activity [20]: 100%; inhibition [21]: 5.58%; inhibition [22]: 14.1%; residual activity [23]: 86%; inhibition [24]: -8.76%; inhibition [25]: 14.4%; Ki (Histamine H2 receptor): 975 nM; residual activity [26]: 100%; inhibition [27]: -5.61%; residual activity [28]: 100%; inhibition [29]: 2.11%; residual activity [30]: 100%

Which residual activity [1] does the source give for COc1cc(-c2cn([C@H]3CCc4ccccc4N(CC(F)(F)F)C3=O)nn2)ccc1-n1ccc(C)n1 here?
Its residual activity is 100%.

What about the residual activity [2] of the same compound?
The residual activity was 92%.

And the residual activity [4]?
Its residual activity is 99%.

What about the Ki (D(4) dopamine receptor) of the same compound?
The Ki was 4950 nM.

What about the inhibition [6] of the same compound?
Its inhibition is 5.55%.

What about the Ki [31] of the same compound?
Its Ki is 5070 nM.

And the pKi [31]?
The pKi was 5.36.

And the residual activity [9]?
The residual activity was 100%.

And the residual activity [10]?
Its residual activity is 93%.

And the residual activity [11]?
The residual activity was 100%.

And the residual activity [13]?
Its residual activity is 100%.

And the residual activity [14]?
Its residual activity is 100%.

And the residual activity [17]?
Its residual activity is 100%.

And the residual activity [18]?
Its residual activity is 68%.

What about the residual activity [19] of the same compound?
The residual activity was 100%.

What about the residual activity [20] of the same compound?
Its residual activity is 71%.

What about the inhibition [21] of the same compound?
Its inhibition is 6.39%.

What about the Ki [32] of the same compound?
Its Ki is 10000 nM.

What about the inhibition [33] of the same compound?
Its inhibition is 11.3%.

What about the residual activity [23] of the same compound?
The residual activity was 69%.

And the Ki [34]?
Its Ki is 1390 nM.

And the residual activity [26]?
Its residual activity is 100%.

What about the residual activity [28] of the same compound?
Its residual activity is 62%.

And the residual activity [30]?
The residual activity was 100%.
